Activity calls are given as the source filed them. How the calls were made is not given here.
Tested on: CCRIS mutagenicity, Ames/micronucleus/aberration tests
Assay: CCRIS mutagenicity studies
[1] = Test System: AMES SALMONELLA TYPHIMURIUM, Strain/Indicator: TA98, Metabolic Activation: HAMSTER, LIVER, S-9, AROCLOR 1254 (10%), Method: PREINCUBATION
[2] = Test System: AMES SALMONELLA TYPHIMURIUM, Strain/Indicator: TA98, Metabolic Activation: NONE, Method: PREINCUBATION
[3] = Test System: AMES SALMONELLA TYPHIMURIUM, Strain/Indicator: TA98, Metabolic Activation: RAT, LIVER, S-9, AROCLOR 1254 (10%), Method: PREINCUBATION
[4] = Test System: AMES SALMONELLA TYPHIMURIUM, Strain/Indicator: TA100, Metabolic Activation: HAMSTER, LIVER, S-9, AROCLOR 1254 (10%), Method: PREINCUBATION
[5] = Test System: AMES SALMONELLA TYPHIMURIUM, Strain/Indicator: TA100, Metabolic Activation: NONE, Method: PREINCUBATION
[6] = Test System: AMES SALMONELLA TYPHIMURIUM, Strain/Indicator: TA100, Metabolic Activation: RAT, LIVER, S-9, AROCLOR 1254 (10%), Method: PREINCUBATION
[7] = Test System: AMES SALMONELLA TYPHIMURIUM, Strain/Indicator: TA1535, Metabolic Activation: HAMSTER, LIVER, S-9, AROCLOR 1254 (10%), Method: PREINCUBATION
[8] = Test System: AMES SALMONELLA TYPHIMURIUM, Strain/Indicator: TA1535, Metabolic Activation: NONE, Method: PREINCUBATION
[9] = Test System: AMES SALMONELLA TYPHIMURIUM, Strain/Indicator: TA1535, Metabolic Activation: RAT, LIVER, S-9, AROCLOR 1254 (10%), Method: PREINCUBATION
[10] = Test System: AMES SALMONELLA TYPHIMURIUM, Strain/Indicator: TA1537, Metabolic Activation: NONE, Method: PREINCUBATION

Measured: mutagenic call

FC(Cl)(Cl)Cl
inactive: [1] inactive; negative | Test System: AMES SALMONELLA TYPHIMURIUM, Strain/Indicator: TA98, Metabolic Activation: NONE, Method: GAS EXPOSURE inactive; negative | [2] inactive; negative | Test System: AMES SALMONELLA TYPHIMURIUM, Strain/Indicator: TA98, Metabolic Activation: RAT LIVER S-9, PHENOBARBITAL AND BETA-NAPHTHOFLAVONE (40%), Method: GAS EXPOSURE inactive; negative | [3] inactive; negative | [4] inactive; negative | Test System: AMES SALMONELLA TYPHIMURIUM, Strain/Indicator: TA100, Metabolic Activation: NONE, Method: GAS EXPOSURE inactive; negative | [5] inactive; negative | Test System: AMES SALMONELLA TYPHIMURIUM, Strain/Indicator: TA100, Metabolic Activation: RAT LIVER S-9, PHENOBARBITAL AND BETA-NAPHTHOFLAVONE (40%), Method: GAS EXPOSURE inactive; negative | [6] inactive; negative | [7] inactive; negative | Test System: AMES SALMONELLA TYPHIMURIUM, Strain/Indicator: TA1535, Metabolic Activation: NONE, Method: GAS EXPOSURE inactive; negative | [8] inactive; negative | Test System: AMES SALMONELLA TYPHIMURIUM, Strain/Indicator: TA1535, Metabolic Activation: RAT LIVER S-9, PHENOBARBITAL AND BETA-NAPHTHOFLAVONE (40%), Method: GAS EXPOSURE inactive; negative | [9] inactive; negative | Test System: AMES SALMONELLA TYPHIMURIUM, Strain/Indicator: TA1537, Metabolic Activation: HAMSTER, LIVER, S-9, AROCLOR 1254 (10%), Method: PREINCUBATION inactive; negative | Test System: AMES SALMONELLA TYPHIMURIUM, Strain/Indicator: TA1537, Metabolic Activation: NONE, Method: GAS EXPOSURE inactive; negative | [10] inactive; negative | Test System: AMES SALMONELLA TYPHIMURIUM, Strain/Indicator: TA1537, Metabolic Activation: RAT LIVER S-9, PHENOBARBITAL AND BETA-NAPHTHOFLAVONE (40%), Method: GAS EXPOSURE inactive; negative | Test System: AMES SALMONELLA TYPHIMURIUM, Strain/Indicator: TA1537, Metabolic Activation: RAT, LIVER, S-9, AROCLOR 1254 (10%), Method: PREINCUBATION inactive; negative | Test System: E.COLI, Strain/Indicator: WP2UVRA, Metabolic Activation: NONE, Method: GAS EXPOSURE inactive; negative | Test System: E.COLI, Strain/Indicator: WP2UVRA, Metabolic Activation: RAT LIVER S-9, PHENOBARBITAL AND BETA-NAPHTHOFLAVONE (40%), Method: GAS EXPOSURE inactive; negative | Test System: Mouse lymphoma, Strain/Indicator: L5178Y (tk+/tk-), Metabolic Activation: None, Method: Suspension/plate inactive; negative | Test System: Mouse lymphoma, Strain/Indicator: L5178Y (tk+/tk-), Metabolic Activation: Rat, Liver, S-9, Aroclor 1254, Method: Suspension/plate inactive; inconclusive (previous evaluation negative)

O=C(O)c1cccc(Cl)c1
inactive: Test System: AMES SALMONELLA TYPHIMURIUM, Strain/Indicator: TA97, Metabolic Activation: HAMSTER, LIVER, S-9, AROCLOR 1254 (10%), Method: PREINCUBATION inactive; negative | Test System: AMES SALMONELLA TYPHIMURIUM, Strain/Indicator: TA97, Metabolic Activation: HAMSTER, LIVER, S-9, AROCLOR 1254 (30%), Method: PREINCUBATION inactive; negative | Test System: AMES SALMONELLA TYPHIMURIUM, Strain/Indicator: TA97, Metabolic Activation: NONE, Method: PREINCUBATION inactive; negative | Test System: AMES SALMONELLA TYPHIMURIUM, Strain/Indicator: TA97, Metabolic Activation: RAT, LIVER, S-9, AROCLOR 1254 (10%), Method: PREINCUBATION inactive; negative | Test System: AMES SALMONELLA TYPHIMURIUM, Strain/Indicator: TA97, Metabolic Activation: RAT, LIVER, S-9, AROCLOR 1254 (30%), Method: PREINCUBATION inactive; negative | [1] inactive; negative | Test System: AMES SALMONELLA TYPHIMURIUM, Strain/Indicator: TA98, Metabolic Activation: HAMSTER, LIVER, S-9, AROCLOR 1254 (30%), Method: PREINCUBATION inactive; negative | [2] inactive; negative | Test System: AMES SALMONELLA TYPHIMURIUM, Strain/Indicator: TA98, Metabolic Activation: RAT LIVER S-9, PCB, Method: PREINCUBATION inactive; negative | [3] inactive; negative | Test System: AMES SALMONELLA TYPHIMURIUM, Strain/Indicator: TA98, Metabolic Activation: RAT, LIVER, S-9, AROCLOR 1254 (30%), Method: PREINCUBATION inactive; negative | [4] inactive; negative | Test System: AMES SALMONELLA TYPHIMURIUM, Strain/Indicator: TA100, Metabolic Activation: HAMSTER, LIVER, S-9, AROCLOR 1254 (30%), Method: PREINCUBATION inactive; negative | [5] inactive; negative | Test System: AMES SALMONELLA TYPHIMURIUM, Strain/Indicator: TA100, Metabolic Activation: RAT LIVER S-9, PCB, Method: PREINCUBATION inactive; negative | [6] inactive; negative | Test System: AMES SALMONELLA TYPHIMURIUM, Strain/Indicator: TA100, Metabolic Activation: RAT, LIVER, S-9, AROCLOR 1254 (30%), Method: PREINCUBATION inactive; negative | Test System: AMES SALMONELLA TYPHIMURIUM, Strain/Indicator: TA104, Metabolic Activation: NONE, Method: PREINCUBATION inactive; negative | Test System: AMES SALMONELLA TYPHIMURIUM, Strain/Indicator: TA104, Metabolic Activation: RAT LIVER S-9, PCB, Method: PREINCUBATION inactive; negative | [7] inactive; negative | Test System: AMES SALMONELLA TYPHIMURIUM, Strain/Indicator: TA1535, Metabolic Activation: HAMSTER, LIVER, S-9, AROCLOR 1254 (30%), Method: PREINCUBATION inactive; negative | [8] inactive; negative | [9] inactive; negative | Test System: AMES SALMONELLA TYPHIMURIUM, Strain/Indicator: TA1535, Metabolic Activation: RAT, LIVER, S-9, AROCLOR 1254 (30%), Method: PREINCUBATION inactive; negative | Test System: AMES SALMONELLA TYPHIMURIUM, Strain/Indicator: TA1537, Metabolic Activation: HAMSTER, LIVER, S-9, AROCLOR 1254 (30%), Method: PREINCUBATION inactive; negative | [10] inactive; negative | Test System: AMES SALMONELLA TYPHIMURIUM, Strain/Indicator: TA1537, Metabolic Activation: RAT, LIVER, S-9, AROCLOR 1254 (30%), Method: PREINCUBATION inactive; negative | Test System: E.COLI, Strain/Indicator: WP2 UVRA, Metabolic Activation: NONE, Method: PREINCUBATION inactive; negative | Test System: E.COLI, Strain/Indicator: WP2 UVRA, Metabolic Activation: RAT LIVER S-9, PCB, Method: PREINCUBATION inactive; negative
